Data set [1] in a line: Plasma concentration in CD1 mouse xenografted with mouse CT26 cells overexpressing human IDO1 at 3 mg/kg, po administered as single dose measured after 4 hrs by mass spectrometry. The format is ADME, organism-based.
Data set [2] in a line: Plasma concentration in CD1 mouse xenografted with mouse CT26 cells overexpressing human IDO1 at 3 mg/kg, po administered as single dose measured after 16 hrs by mass spectrometry. It counts as ADME, organism-based. To be noted: in vivo, BLD = below limit of detection.
Data set [3] in a line: Plasma concentration in CD1 mouse xenografted with mouse CT26 cells overexpressing human IDO1 at 3 mg/kg, po administered as single dose measured after 2 hrs by mass spectrometry. The format is ADME, organism-based.
A short description of data set [4]: Plasma concentration in CD1 mouse xenografted with mouse CT26 cells overexpressing human IDO1 at 3 mg/kg, po administered as single dose measured after 8 hrs by mass spectrometry. The format is ADME, organism-based. On the technique in general: In xenograft studies the graft and the host belong to different species.
Data set [5] in a line: Volume of distribution in dog. It counts as ADME, Canis lupus familiaris. To be noted: in vivo.
Data set [6] can be described thus: Oral bioavailability in dog. The format is ADME, organism-based, Canis lupus familiaris. The conditions noted are these: in vivo.
A short description of data set [7]: Half life in dog. It counts as ADME, Canis lupus familiaris. To be noted: in vivo.
Data set [8] is described as follows: Oral bioavailability in Wistar Han rat by LC-MS/MS analysis. The format is ADME, organism-based. The conditions noted are these: in vivo.
Data set [9] deals with T1, Indoleamine 2,3-dioxygenase 1 (Homo sapiens, UniProt P14902). Nature of the data set: Inhibition of IDO1 in IFNgamma/LPS stimulated human whole blood assessed as reduction in kynurenine production using tryptophan as substrate preincubated with compound for 15 mins followed by incubation with IFNgamma/LPS for overnight by LC/MS/MS analysis. It counts as tissue-based.
Data set [10] in a line: Volume of distribution in Wistar Han rat by LC-MS/MS analysis. To be noted: in vivo. It counts as ADME.
A short description of data set [11]: Unbound clearance in dog. It counts as ADME, Canis lupus familiaris. The conditions noted are these: in vivo.
A short description of data set [12]: Half life in Wistar Han rat by LC-MS/MS analysis. It counts as ADME. To be noted: in vivo.
Data set [13] can be described thus: Unbound clearance in Wistar Han rat by LC-MS/MS analysis. To be noted: in vivo. It counts as ADME.
Data set [14] concerns the target T1, Indoleamine 2,3-dioxygenase 1. Nature of the data set: Inhibition of IDO1 in human HeLa cells. The format is cell-based.
Target sequence in this assay (P14902 whole entry): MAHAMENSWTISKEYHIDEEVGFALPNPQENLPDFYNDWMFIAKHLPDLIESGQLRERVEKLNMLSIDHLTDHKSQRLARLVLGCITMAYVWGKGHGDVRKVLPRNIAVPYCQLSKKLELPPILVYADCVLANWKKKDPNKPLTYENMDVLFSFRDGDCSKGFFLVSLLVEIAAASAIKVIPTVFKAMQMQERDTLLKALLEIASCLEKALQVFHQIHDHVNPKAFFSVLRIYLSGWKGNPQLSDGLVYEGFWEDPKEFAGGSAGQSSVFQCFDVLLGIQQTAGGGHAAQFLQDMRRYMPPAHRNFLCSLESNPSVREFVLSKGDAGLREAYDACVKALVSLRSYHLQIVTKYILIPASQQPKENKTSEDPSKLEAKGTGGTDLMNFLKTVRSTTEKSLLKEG
Data set [15] can be described thus: Lipophilicity, logD of the compound by HPLC analysis. The format is physicochemical.
Data set [16] can be described thus: Clearance in dog. The format is ADME, Canis lupus familiaris. To be noted: in vivo.
A short description of data set [17]: Clearance in Wistar Han rat by LC-MS/MS analysis. The format is ADME. The conditions noted are these: in vivo.

Experimental findings from ChEMBL document CHEMBL4825761, “Utilization of Metabolite Identification and Structural Data to Guide Design of Low-Dose IDO1 Inhibitors” (ACS Med Chem Lett, 2021) are described below.

The structures appear in SMILES notation.

With `Cc1nccc(N2CCCc3nc(C4(NC(=O)c5ccc(F)cc5)CC4)ccc32)n1`, in data set [1], the concentration at 4 h was 90 nM. Besides, the Cp result in data set [2] was “Bld”. The molecule further displayed a concentration at 2 h in [3] of 210 nM. In addition, the concentration at 8 h in data set [4] turned out to be 30 nM.

The Vd is the apparent volume that relates the amount in the body to the concentration in plasma or blood. Low readings indicate confinement near the circulation, high ones extensive tissue distribution. One may read the bioavailability as dose-corrected exposure relative to a reference, in per cent. A high value points to much systemic uptake. As a reminder, the half-life is the time needed for the level to fall by half in the phase considered. In general, IC50 refers to the concentration that gives 50% inhibition. The term logD denotes lipophilicity at a set pH, counting ionised and neutral species. A low value points to a more hydrophilic compound. One may read the clearance as the volume of plasma or blood freed of the substance per unit of time. Low values mean inefficient removal, high ones efficient removal. As to `Cc1nccc(N2C[C@@H]3C[C@@H]3c3nc(C4(NC(=O)c5ccc(F)cc5)CC4)ccc32)n1`, the Vd was determined as 1.3 L/kg in data set [5] and 1.4 L/kg in [10]. The bioavailability in [6] and in data set [8] was 46% throughout. For the same molecule, the half-life in [7] is 9 h; in data set [12] it was 1.9 h. For the same molecule, the values for the IC50 in data set [9] and in data set [14] were 16 nM and 2 nM, respectively. Also, the fIC50 in data set [9] turned out to be 0.8 nM. The CL free in [11] amounted to 26 mL/min/kg; in data set [13], 307 mL/min/kg. The same molecule showed a logD in data set [15] of 2.4. Further, the clearance worked out at 12.3 mL/min/kg in [16] and 16.7 mL/min/kg in [17].
